Broadly, the inhibition is the percentage by which the read-out fell short of the control. A high value points to a response far below the control. The EC50 is the concentration giving half of the maximal effect. A lower EC50 goes with greater potency.

The first assay deals with T1, Edg-1/S1P1 receptor (Homo sapiens, UniProt P21453).
T1 construct: expressed in transfected cells; host or cells: human osteogenic sarcoma U2OS cells: Edg-1 Transfluor U2OS WT Clone #37 (assay I), Edg-1 Transfluor U2OS Clone #3 (assay II)
T1 sequence (P21453 whole entry): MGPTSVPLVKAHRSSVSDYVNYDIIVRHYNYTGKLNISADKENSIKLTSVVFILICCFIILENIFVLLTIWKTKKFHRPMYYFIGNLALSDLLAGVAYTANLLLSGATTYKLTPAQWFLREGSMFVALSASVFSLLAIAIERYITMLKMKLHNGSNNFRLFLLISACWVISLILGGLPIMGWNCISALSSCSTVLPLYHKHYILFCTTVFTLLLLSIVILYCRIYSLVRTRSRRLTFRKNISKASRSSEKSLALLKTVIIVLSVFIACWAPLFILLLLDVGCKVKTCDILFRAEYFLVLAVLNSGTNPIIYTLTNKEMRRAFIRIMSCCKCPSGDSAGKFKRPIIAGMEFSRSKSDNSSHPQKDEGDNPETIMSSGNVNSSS
Put plainly: In vitro cell based receptor activation assay - Transfluor assay (assay I or II; beta-arrestin GFP relocalization after S1P stimulation). Conditions: at 3.50 μM (titrated from top concentration 10 μM). An excerpt:
The following assays can be used to measure the effects of the compounds of the present invention as S1P1/Edg1 inhibitors.
I. In Vitro Cell Based Receptor Activation Assay-Transfluor Assay
This cell-based assay was designed to assess the ability of small molecule antagonists to inhibit activation of the GPCR S1P1 in the presence of its cognate ligand S1P. The assay used technology initially developed by Norak Biosciences (Xsira Pharmaceutical) and presently owned by Molecular Devices. A human osteogenic sarcoma (U2OS) cell line overexpressing the Edg-1/S1P1) receptor as well as a beta-arrestin/green fluorescent protein (GFP) construct hereafter termed Edg-1 Transfluor U2OS WT Clone #37 was employed.
Using a high content screening approach (Cellomics Arrayscan), receptor activity was measured by assessment of the relocalization of beta-arrestin GFP in response to stimulation of Edg-1 by SIP. Specifically, Edg-1 Transfluor U2OS WT Clone #37 cells were plated at a density of 6250 cells in 40 μL medium per well in 384 well plastic bottomed microtiter plates (BD Falcon) and incubated overnight at 37° C./5% CO2. Prior to screening, compounds were dissolved in 100% dimethyl sulfoxide (DMSO) to a final stock concentration of 10 mM. Compounds were then serially diluted at 30× final concentration in Edg-1 Transfluor cell growth medium containing […] using the Tecan Genesis instrument. These 30× plates were then diluted to 6× final concentration with Edg-1 Transfluor growth medium just prior to dosing. Cells were then dosed with 10 μL per well of 6× compound dilutions or 6% DMSO and pre-incubated for 15 minutes at room temperature. Cell plates were dosed with 10 μL per well 6× S1P Edg-1 Transfluor growth medium, then incubated for 45 minutes at 37° C./5% CO2. Final concentration in the well of DMSO was 1%, compound was IX (3-fold, 9 point IC50 dilutions starting at 100 μM final concentration), and either 375 nM or […] SIP ligand. Cell plates were then fixed by adding 50 μL per well of 5% formaldehyde in 1× Dulbecco's phosphate buffered saline (DPBS) directly and incubating for 30 minutes at room temperature in darkness. Fixative was removed and replaced with 50 μL per well of 1×DPBS, after which cells were stained with 10 μg/mL final concentration of Hoechst 33342 (Molecular Probes) for 15 minutes at room temperature in darkness. Stain was then removed from the plates and replaced with 50 μL per well of 1×DPBS using the BioTek ExL405 plate washer. Plates were then sealed and analysed on the Cellomics Arrayscan using the GPCR signalling algorithm. EC50 values were then calculated using IDBS ActivityBase software.
II. In Vitro Cell Based Receptor Activation Assay-Transfluor Assay
This cell-based assay was designed to assess the ability of small molecule antagonists to inhibit activation of the GPCR S1P1 in the presence of its cognate ligand S1P. The assay used technology initially developed by Norak Biosciences (Xsira Pharmaceutical) and presently owned by Molecular Devices (MDS Analytical Technologies). A human osteogenic sarcoma (U2OS) cell line overexpressing the Edg-1/S1P1) receptor as well as a beta-arrestin/green fluorescent protein (GFP) construct hereafter termed Edg-1 Transfluor U2OS Clone #3 was employed.
Using a high content screening approach (Molecular Devices Image Express), receptor activity was measured by assessment of the relocalization of beta-aiTestin GFP in response to stimulation of Edg-1 by S1P. Specifically, Edg-1 Transfluor U2OS Clone #3 cells were plated at a density of 6250 cells in 44 μL medium per well in 384 well plastic bottomed microtiter plates (BD Falcon) and incubated overnight at 37° C./5% CO2. Prior to screening, compounds were dissolved in 100% dimethyl sulfoxide (DMSO) to a final stock concentration of 10 mM. Compounds were then serially diluted at 10× final concentration in Edg-1 Transfluor cell growth medium containing 6% DMSO using the BioMek instrument. […]
Consider `CCn1c([C@@H](C)NS(=O)(=O)c2ccc(Cl)cc2)nc2cc(C)c(C)cc21` [Example 24, 4-Chloro-N-[(1R)-1-(1-ethyl-5,6-dimethyl-1H-benzimidazol-2-yl)ethyl]benzenesulfonamide], for which the inhibition at 3.5 µM is 73%.
For the compound `CCn1c([C@@H](C)NS(=O)(=O)c2ccc(F)cc2)nc2ccc(C(F)(F)F)cc21` [Example 25, N-{(1R)-1-[1-Ethyl-6-(trifluoromethyl)-1H-benzimidazol-2-yl]ethyl}-4-fluorobenzenesulfonamide], 3.5 µM produced 90% inhibition.
On the same count and under the same terms, the value for `CCn1c([C@@H](C)NS(=O)(=O)c2ccc(C#N)cc2)nc2ccc(C(F)(F)F)cc21` [Example 26, 4-Cyano-N-{(1R)-1-[1-ethyl-6-(trifluoromethyl)-1H-benzimidazol-2-yl]ethyl}benzenesulfonamide] was 87.4%.
For `CCn1c([C@@H](C)NS(=O)(=O)c2ccc(F)c(C#N)c2)nc2ccc(C(F)(F)F)cc21` [Example 27, 3-Cyano-N-{(1R)-1-[1-ethyl-6-(trifluoromethyl)-1H-benzimidazol-2-yl]ethyl}-4-fluorobenzenesulfonamide], 3.5 µM produced 85.7% inhibition.
Compound `CCn1c([C@@H](C)NS(=O)(=O)c2ccc(F)c(C)c2)nc2ccc(C(F)(F)F)cc21` [Example 30, N-{(1R)-1-[1-Ethyl-6-(trifluoromethyl)-1H-benzimidazol-2-yl]ethyl}-4-fluoro-3-methylbenzenesulfonamide] yielded an inhibition at 3.5 µM of 94.6%.
`CCn1c([C@@H](C)NS(=O)(=O)c2cc(C)oc2C)nc2ccc(C(F)(F)F)cc21` [Example 33, N-{(1R)-1-[1-Ethyl-6-(trifluoromethyl)-1H-benzimidazol-2-yl]ethyl}-2,5-dimethylfuran-3-sulfonamide] gave an inhibition at 3.5 µM of 92%.
With `CCn1c([C@@H](C)NS(=O)(=O)c2ccc(F)c(F)c2F)nc2ccc(C(F)(F)F)cc21` [Example 34], at 3.5 µM the inhibition was 95.3%.
`CCn1c([C@@H](C)NS(=O)(=O)c2cccs2)nc2ccc(C(F)(F)F)cc21` [Example 39, N-{(1R)-1-[1-Ethyl-6-(trifluoromethyl)-1H-benzimidazol-2-yl]ethyl}thiophene-2-sulfonamide]: the inhibition at 3.5 µM was found to be 92.5%.
As for `CCn1c([C@@H](C)NS(=O)(=O)c2ccc(C(=O)OC)n2C)nc2ccc(C(F)(F)F)cc21` [Example 40, (R)-methyl 5-(N-(1-(1-ethyl-6-(trifluoromethyl)-1H-benzo[d]imidazol-2-yl)ethyl)sulfamoyl)-1-methyl-1H-pyrrole-2-carboxylate], 3.5 µM produced 97.5% inhibition.
On to `CCn1c([C@@H](C)NS(=O)(=O)c2ccc3c(c2)OCCN3C)nc2ccc(C(F)(F)F)cc21` [Example 43, N-{(1R)-1-[1-Ethyl-6-(trifluoromethyl)-1H-benzimidazol-2-yl]ethyl}-4-methyl-3,4-dihydro-2H-1,4-benzoxamide-7-sulfonamide], for which the inhibition at 3.5 µM was determined as 93.3%.
With `CCn1c([C@@H](C)NS(=O)(=O)c2ccc3c(c2)OCCO3)nc2ccc(C(F)(F)F)cc21` [Example 44, N-{(1R)-1-[1-Ethyl-6-(trifluoromethyl)-1H-benzimidazol-2-yl]ethyl}-2,3-dihydro-1,4-benzodioxine-6-sulfonamide], 3.5 µM produced 93.9% inhibition.
With `CCn1c([C@@H](C)NS(=O)(=O)c2ccc3c(c2)OCO3)nc2ccc(C(F)(F)F)cc21` [Example 45, N-{(1R)-1-[1-Ethyl-6-(trifluoromethyl)-1H-benzimidazol-2-yl]ethyl}-1,3-benzodioxole-5-sulfonamide], the inhibition at 3.5 µM was determined as 96%.

Staying with this assay, now noted: at 3.70 μM (titrated from top concentration 100 μM).
The compound `CC(NS(=O)(=O)c1ccc(Cl)cc1)c1nc2ccccc2n1C1CC1` (centres unmarked) [Example 21, 4-Chloro-N-[1-(1-cyclopropyl-1H-benzimidazol-2-yl)ethyl]benzenesulfonamide] gave an inhibition at 3.7 µM of 39%.
Compound `CCn1c([C@@H](C)NS(=O)(=O)c2ccc(Cl)cc2)nc2cc(Cl)c(Cl)cc21` [Example 22, (R)-4-Chloro-N-[1-(5,6-dichloro-1-ethyl-1H-benzoimidazol-2-yl)ethyl]-benzenesulfonamide] showed an inhibition at 3.7 µM of 63.5%.
On the same count and under the same terms, with `CC(NS(=O)(=O)c1ccc(Cl)cc1)c1nc2ccccc2n1CC(F)(F)F` (centres unmarked) [Example 23, 4-Chloro-N-{1-[1-(2,2,2-trifluoro-ethyl)-1H-benzimidazol-2-yl]-ethyl}-benzenesulfonamide] the figure was 88.1%; with `CCn1c([C@@H](C)NS(=O)(=O)C2CCCC2)nc2ccc(C(F)(F)F)cc21` [Example 28, N-{(1R)-1-[1-Ethyl-6-(trifluoromethyl)-1H-benzimidazol-2-yl]ethyl} cyclopentanesulfonamide], 66.1%.
The same measure, in the same setting: with `CCn1c([C@@H](C)NS(=O)(=O)c2ccc(NC(C)=O)c(C)c2)nc2ccc(C(F)(F)F)cc21` [Example 29, N-{4-[({(1R)-1-[1-Ethyl-6-(trifluoromethyl)-1H-benzimidazol-2-yl]ethyl}amino)sulfonyl]-2-methylphenyl}acetamide] the figure was 21.8%.
Same read-out and setting: the value for `CCn1ncc(S(=O)(=O)N[C@H](C)c2nc3ccc(C(F)(F)F)cc3n2CC)c1C` [Example 31, 1-Ethyl-N-{(1R)-1-[1-ethyl-6-(trifluoromethyl)-1H-benzimidazol-2-yl]ethyl}-5-mthyl-1H-pyrazole-4-sulfonamide] was 78.6%; that for `CCn1c([C@@H](C)NS(=O)(=O)c2cnc(C)n2C)nc2ccc(C(F)(F)F)cc21` [Example 32, N-{(1R)-1-[1-Ethyl-6-(trifluoromethyl)-1H-benzimidazol-2-yl]ethyl}-1,2-dimethyl-1H-imidazole-5-sulfonamide] was 66.5%.
In turn, `CCn1c([C@@H](C)NS(=O)(=O)c2cnc(NC(C)=O)s2)nc2ccc(C(F)(F)F)cc21` [Example 36, N-{5-[({(1R)-1-[1-Ethyl-6-(trifluoromethyl)-1H-benzimidazol-2-yl]ethyl}amino)sulfonyl]-1,3-thiazol-2-yl}acetamide] gave an inhibition at 3.7 µM of 49%.
Still for that read-out and setting: with `CCn1c([C@@H](C)NS(=O)(=O)c2c(C)noc2C)nc2ccc(C(F)(F)F)cc21` [Example 37, N-{(1R)-1-[1-Ethyl-6-(trifluoromethyl)-1H-benzimidazol-2-yl]ethyl}-3,5-dimethylisoxazole-4-sulfonamide] the figure was 58.3%.
On to `CCn1c([C@@H](C)NS(=O)(=O)C2CC2)nc2ccc(C(F)(F)F)cc21` [Example 38, N-{(1R)-1-[1-Ethyl-6-(trifluoromethyl)-1H-benz-imidazol-2-yl]ethyl}cyclo-propanesulfonamide], for which testing at 3.7 µM gave an inhibition of 35.1%.
In turn, `CCn1c([C@@H](C)NS(=O)(=O)c2cn(C)nc2C)nc2ccc(C(F)(F)F)cc21` [Example 41, N-{(1R)-1-[1-Ethyl-6-(trifluoromethyl)-1H-benzimidazol-2-yl]ethyl}-1,3-dimethyl-1H-pyrazole-4-sulfonamide] gave an inhibition at 3.7 µM of 61%.
The compound `CCn1c([C@@H](C)NS(=O)(=O)c2cn(C)c(C)n2)nc2ccc(C(F)(F)F)cc21` [Example 42, N-{(1R)-1-[1-Ethyl-6-(trifluoromethyl)-1H-benzimidazol-2-yl]ethyl}-1,2-dimethyl-1H-imidazole-4-sulfonamide] displayed an inhibition at 3.7 µM of 41.3%.
Same read-out and setting: with `CCn1c([C@@H](C)NS(=O)(=O)c2ccc3nsnc3c2)nc2ccc(C(F)(F)F)cc21` [Example 46, N-{(1R)-1-[1-Ethyl-6-(trifluoromethyl)-1H-benzimidazol-2-yl]ethyl}-2,1,3-benzothiadiazole-5-sulfonamide] the figure was 89.8%.

Still in this assay, the particulars now being: one or the other of the two Transfluor assays; Edg-1 Transfluor U2OS cells, S1P ligand.
Take `CC(NS(=O)(=O)c1ccc(Cl)cc1)c1nc2ccccc2n1C1CC1` (centres unmarked) [Example 21, 4-Chloro-N-[1-(1-cyclopropyl-1H-benzimidazol-2-yl)ethyl]benzenesulfonamide]: the EC50 was determined as 5.15 µM.
